From paper PMC6950245, “Identification and Characterization of ShSPI, a Kazal-Type Elastase Inhibitor from the Venom of Scolopendra Hainanum” (Toxins, 2019)
Where a SMILES comes first, the peptide text is derived from it. Bridges are numbered along the chain shown (N, C = ends).

What was measured:
[1] = biological target: T1, human neutrophil elastase (HNE) (Homo sapiens, UniProt P08246); assay: Protease inhibition assay, human neutrophil elastase (chromogenic substrate, Dixon method); assay type: biochemical
T1 construct: purchased Sigma-Aldrich E8140
T1 sequence (P08246 30-267): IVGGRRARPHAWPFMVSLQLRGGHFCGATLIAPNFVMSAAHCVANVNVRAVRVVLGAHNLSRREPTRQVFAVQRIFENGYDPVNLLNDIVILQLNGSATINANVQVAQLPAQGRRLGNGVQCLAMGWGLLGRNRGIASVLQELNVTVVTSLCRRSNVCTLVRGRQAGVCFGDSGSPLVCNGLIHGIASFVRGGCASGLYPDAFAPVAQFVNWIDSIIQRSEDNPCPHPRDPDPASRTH
Text: (§1) Human neutrophils elastase (HNE, E8140), porcine pancreatic elastase (PPE, E0127), cathepsin G (CG, C4428), human trypsin (T6424), α-chymotrypsin from human pancreas (C8946), and thrombin from human plasma (T4393) were all purchased from Sigma-Aldrich (USA). Factor Xa (FXa, HFXa 1011) and Factor XIIa (FXIIa, HFXIIa 1212a) were from Enzyme Research Laboratories (South Bend, IN, USA). Kallikrein from human plasma (420307) was from Merck Millipore (Billerica, MA, USA).
Substrate for HNE and PPE (MeOSuc-Ala-Ala-Pro-Val-pNA, 324696) was purchased from Merck Millipore (USA). Substrates for CG (Succinyl-Ala-Ala-Pro-Phe-pNA, 573462), trypsin (Nalpha-Benzoyl-L-arginine 4-nitroanilide hydrochloride, B3133), FXa (CH3OCO-D-CHA-Gly-Arg-pNA-AcOH, F3301), chymotrypsin (N-Succinyl-Gly-Gly-Phe-pNA, S1899), thrombin (β-Ala-Gly-Arg-pNA diacetate, T3068), and kallikrein (Z-Phe-Arg 7-amido-4-methylcoumarin hydrochloride, C9521) were purchased from Sigma-Aldrich (USA).
(§2) As mentioned in our previous study, experiments for protease inhibitory activity were assayed in buffer (0.05 M Tris-HCl, pH 7.8) at 37 °C. […] At the end of the incubation, the reaction was initiated by the addition of the exclusive substrate solution and monitored by recording the absorbance at 405 nm every 30 s for 30 min. Enzyme activity in each well was calculated based on the initial slope of the reaction curve, and percentage of the initial slope of the uninhibited reaction was expressed. The inhibition constant Ki value was determined according to the Dixon method.

[2] = biological target: T2, porcine pancreatic elastase (PPE) (Sus scrofa, UniProt P00772); assay: Protease inhibition assay, porcine pancreatic elastase (chromogenic substrate, Dixon method); assay type: biochemical; conditions: 0.05 M Tris-HCl pH 7.8, 37 °C, 10 min pre-incubation, PPE 1 μg/mL, substrate MeOSuc-Ala-Ala-Pro-Val-pNA 30, 60, 90 μg/mL, absorbance 405 nm
T2 construct: purchased Sigma-Aldrich E0127
Text: as §1
Substrate for HNE and PPE (MeOSuc-Ala-Ala-Pro-Val-pNA, 324696) was purchased from Merck Millipore (USA). […]
as §2

[3] = biological target: T1, human neutrophil elastase (HNE); assay: Surface plasmon resonance, ShSPI immobilized, HNE injected; conditions: SPR Biacore 3000, ShSPI on CM5 chip, HNE injected 180 s at 10 μL/min, HBS-P buffer, Langmuir binding fit; read-out: ka, HNE
Description: (§3) Sensor chips CM5 (BR100012), 10 mM acetate buffer (BR100350, pH 4.0), amine coupling kit (BR100050), and HBS-P buffer (BR100826, used as running buffer) were all obtained from GE Healthcare Bio-sciences AB (Uppsala, Sweden). Data were collected and analyzed by BIAcore System (Version 3000, GE Healthcare Life Sciences, Pittsburgh, PA, USA) and BIA evaluation software (Version 3.0, GE Healthcare Life Sciences, Pittsburgh, PA, USA).
(§4) Before testing, ShSPI (100 μg/mL in acetate buffer, pH 4.0) was immobilized to the surface of CM5 chip. Following a standard amine coupling chemistry, running buffer was used to reach equilibration. HNE or PPE (doubling dilution) was injected over the immobilized ShSPI at a flow rate of 10 μL/min, and the association rate (ka, M^−1s^−1) was determined. After 3 min, running buffer was applied to the surface, and the dissociation rate (kd, s^−1) was determined over 15 min for PPE and 30 min for HNE, and another 500 μL of running buffer were injected at a flow rate of 20 μL/min to rebalance the chip. The equilibrium association constant (KA, M^−1) and the equilibrium dissociation constant (KD, M) were determined by ka/kd and kd/ka, respectively.

[4] = biological target: T2, porcine pancreatic elastase (PPE); assay: Surface plasmon resonance, ShSPI immobilized, PPE injected; conditions: SPR Biacore 3000, ShSPI on CM5 chip, PPE injected 180 s at 10 μL/min, HBS-P buffer, Langmuir binding fit; read-out: ka, PPE
Description: as §3, §4

[5] = Plasma stability, read out by enzyme inhibitory activity; assay type: in vitro ADME; conditions: lyophilized human plasma resuspended in water, 500 nM, 37 °C, 0-48 h, triplicate samples
Description: Lyophilized human plasma (400100, Cayman, Ann Arbor, MI, USA) was resuspended in sterile water according to the instruction, then ShSPI was added to each equivalent volume with a final concentration of 500 nM, and samples were co-incubated at 37 °C for two days. Triplicate samples were collected at selected time points (0, 6, 12, 18, 24, 30, 36, 42, and 48 h) and protease activity was tested as described above.

T2 sequence (P00772 27-266): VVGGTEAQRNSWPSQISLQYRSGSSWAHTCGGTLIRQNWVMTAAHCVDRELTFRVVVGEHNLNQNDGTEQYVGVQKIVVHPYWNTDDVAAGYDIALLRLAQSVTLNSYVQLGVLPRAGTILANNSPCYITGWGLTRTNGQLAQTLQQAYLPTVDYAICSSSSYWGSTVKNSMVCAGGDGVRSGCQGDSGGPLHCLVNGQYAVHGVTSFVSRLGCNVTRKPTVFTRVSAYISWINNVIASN

SMILES: CC[C@H](C)[C@@H]1NC(=O)[C@H](C)NC(=O)[C@@H]2CCCN2C(=O)[C@@H]2CSSC[C@H](NC(=O)[C@H](CO)NC(=O)[C@H](CC(N)=O)NC(=O)[C@H](CO)NC(=O)[C@H](Cc3ccc(O)cc3)NC(=O)[C@H](CCSC)NC(=O)[C@H](CCCNC(=N)N)NC(=O)CNC(=O)[C@H](Cc3ccccc3)NC(=O)[C@H](CCC(=O)O)NC(=O)[C@H](CC(=O)O)NC(=O)[C@H](Cc3ccccc3)NC(=O)[C@H](C(C)C)NC(=O)[C@@H]3CCCN3C(=O)[C@H](CCC(N)=O)NC(=O)[C@H](Cc3ccc(O)cc3)NC1=O)C(=O)N[C@@H](CCC(=O)O)C(=O)N[C@@H](CCSC)C(=O)N[C@@H](CCC(N)=O)C(=O)N[C@@H](CCCNC(=N)N)C(=O)N[C@@H](C)C(=O)N[C@@H](CCCNC(=N)N)C(=O)N[C@H](C(=O)N[C@@H](CC(C)C)C(=O)N[C@@H](CCCNC(=N)N)C(=O)NCC(=O)O)CSSC[C@H](N)C(=O)N1CCC[C@H]1C(=O)N[C@@H](CCC(N)=O)C(=O)N[C@@H](C(C)C)C(=O)N2 [ShSPI] (H-CPQVCPAIYQPVFDEFGRMYSNSCEMQRARCLRG-OH; disulfide 1-31, 5-24)
- Ki [1]: 12.6 ± 2 nM
- Ki [2]: 226 ± 20 nM
- kon [3]: 4500 M⁻¹ s⁻¹
- kon [4]: 45000 M⁻¹ s⁻¹
- Stability in human plasma [5]: no significant degradation over 48 h
